Residues, ends and D or L forms follow the SMILES beside them.

The record followed here is publication PMC5766609 (Scientific Reports, 2018).

For experiment [1], the target named is T1, human glucagon receptor (GCGR) (Homo sapiens, UniProt P47871).
T1 construct: expressed in transfected cells; host or cells: CHO-JumpIn cells, stably transfected
In words: cAMP assay on CHO-JumpIn cells stably transfected with human glucagon receptor (HitHunter cAMP).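 As to all read-outs here: peptides tested as 4-fold serial dilutions starting from a 2 µM solution, cells exposed 1 hr at RT in darkness, cAMP quantified against a cAMP standard curve.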 To be noted: for EC50: Table 2, cAMP accumulation, CHO-JumpIn cells with human GCGR, buffer PBS, 0.1% BSA, 100 μM RO 20-1724, 20% serum, 1 hr at RT, value ± spread, read-out: EC50 GCGR. The experiment is classed as cell-based. A general note: Cyclic AMP is a second messenger, typically raised through Gs and lowered through Gi signalling.
Protocol: (§1) Briefly, a 2 μM solution of peptide was prepared, and 4-fold serial dilutions were made. 150 nL of the above titration was then dispensed into an Optiplate384 using an Echo555. […] The HitHunter® cAMP Assay kit calibration curve was prepared following the manufacturer’s protocol (DiscoveRx-90-0075L). 30,000 cells/well were added to the peptides, spun briefly at 500 rpm for 15 s and incubated at RT in the dark for 1 hr. The assay was developed as per the manufacturer’s instructions. cAMP accumulation due to GLP1R agonism or GCGR agonism was measured using an EnVision platereader (PerkinElmer), and calibrated using the cAMP standard curve. Data were analyzed using Assay Data Analyzer (ADA).

For experiment [2], the target named is T2, human GLP-1 receptor (GLP1R) (Homo sapiens, UniProt P43220).
T2 construct: expressed in transfected cells; host or cells: CHO-JumpIn cells, stably transfected
T2 sequence (P43220 24-463): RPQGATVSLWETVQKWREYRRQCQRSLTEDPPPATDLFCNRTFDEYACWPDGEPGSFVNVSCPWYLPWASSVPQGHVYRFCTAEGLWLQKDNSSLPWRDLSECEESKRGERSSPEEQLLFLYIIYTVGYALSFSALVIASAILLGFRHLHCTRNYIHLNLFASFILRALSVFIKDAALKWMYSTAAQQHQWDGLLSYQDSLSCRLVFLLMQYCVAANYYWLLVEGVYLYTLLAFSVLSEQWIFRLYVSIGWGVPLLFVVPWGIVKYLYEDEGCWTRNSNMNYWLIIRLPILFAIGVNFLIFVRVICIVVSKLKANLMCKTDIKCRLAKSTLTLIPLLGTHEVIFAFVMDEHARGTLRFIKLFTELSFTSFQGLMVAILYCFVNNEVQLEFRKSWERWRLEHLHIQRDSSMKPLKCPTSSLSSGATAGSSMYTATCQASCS
In words: cAMP assay on CHO-JumpIn cells stably transfected with human GLP-1 receptor (HitHunter cAMP).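 Also: peptides tested as 4-fold serial dilution series, cells exposed 1 hr at RT in the dark, cAMP quantified against a cAMP standard calibration curve.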 Format: cell-based. Conditions: Table 2, cAMP accumulation, buffer PBS, 0.1% BSA, 100 μM RO 20-1724, 20% serum, 1 hr at RT, value ± spread, read-out: EC50 GLP1R.
Protocol: as §1

T1 sequence (P47871 26-477): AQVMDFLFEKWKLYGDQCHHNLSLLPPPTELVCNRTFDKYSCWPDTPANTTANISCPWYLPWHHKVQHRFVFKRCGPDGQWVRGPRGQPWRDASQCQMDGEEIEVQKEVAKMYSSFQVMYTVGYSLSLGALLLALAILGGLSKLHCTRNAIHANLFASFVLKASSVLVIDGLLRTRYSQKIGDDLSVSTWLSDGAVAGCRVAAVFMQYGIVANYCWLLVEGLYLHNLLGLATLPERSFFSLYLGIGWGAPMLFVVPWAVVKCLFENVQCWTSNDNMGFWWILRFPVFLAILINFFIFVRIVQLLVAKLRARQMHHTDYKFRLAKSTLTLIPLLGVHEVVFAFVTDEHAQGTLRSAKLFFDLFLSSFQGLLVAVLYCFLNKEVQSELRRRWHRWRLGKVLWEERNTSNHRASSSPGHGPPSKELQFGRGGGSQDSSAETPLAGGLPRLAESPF

A word on the EC50: it is the concentration at which the effect is half-maximal. For the molecule `CC[C@H](C)[C@H](NC(=O)[C@H](CO)NC(=O)[C@H](CC(=O)O)NC(=O)[C@H](CC(C)C)NC(=O)[C@H](Cc1ccc(O)cc1)NC(=O)[C@H](CCCCN)NC(=O)[C@H](CO)NC(=O)[C@H](Cc1ccc(O)cc1)NC(=O)[C@H](CC(=O)O)NC(=O)[C@H](CO)NC(=O)[C@@H](NC(=O)[C@H](Cc1ccccc1)NC(=O)[C@@H](NC(=O)CNC(=O)[C@H](CCC(N)=O)NC(=O)[C@H](CO)NC(=O)[C@@H](N)Cc1c[nH]cn1)[C@@H](C)O)[C@@H](C)O)C(=O)N[C@@H](CCCNC(=N)N)C(=O)N[C@@H](C)C(=O)N[C@@H](CCC(N)=O)C(=O)N[C@@H](CC(=O)O)C(=O)N[C@@H](Cc1ccccc1)C(=O)N[C@H](C(=O)N[C@@H](CCC(N)=O)C(=O)N[C@@H](Cc1c[nH]c2ccccc12)C(=O)N[C@@H](CC(C)C)C(=O)N[C@@H](CCSC)C(=O)N[C@@H](CC(=O)O)C(=O)N[C@H](C(N)=O)[C@@H](C)O)C(C)C` [Peptide 18] (H-HSQGTFTSDYSKYLDSIRAQDFVQWLMDT-NH2), the EC50 in experiment [1] worked out at 37 ± 11 pM; in experiment [2] it was 56 ± 12 pM.

Consider `CC[C@H](C)[C@H](NC(=O)[C@H](Cc1c[nH]c2ccccc12)NC(=O)[C@H](Cc1ccccc1)NC(=O)[C@H](CC(=O)O)NC(=O)[C@H](CCC(N)=O)NC(=O)[C@H](C)NC(=O)[C@H](CCCNC(=N)N)NC(=O)[C@H](CCCNC(=N)N)NC(=O)[C@H](CO)NC(=O)[C@H](CC(=O)O)NC(=O)[C@H](CC(C)C)NC(=O)[C@H](Cc1ccc(O)cc1)NC(=O)[C@H](CCCCN)NC(=O)[C@H](CO)NC(=O)[C@H](Cc1ccc(O)cc1)NC(=O)[C@H](CC(=O)O)NC(=O)[C@H](CO)NC(=O)[C@@H](NC(=O)[C@H](Cc1ccccc1)NC(=O)[C@@H](NC(=O)CNC(=O)[C@H](CCC(N)=O)NC(=O)[C@H](CO)NC(=O)[C@@H](N)Cc1c[nH]cn1)[C@@H](C)O)[C@@H](C)O)C(=O)N[C@@H](CC(=O)O)C(=O)N[C@@H](CC(C)C)C(=O)N[C@@H](CCSC)C(=O)N[C@@H](CC(N)=O)C(=O)N[C@H](C(N)=O)[C@@H](C)O` [Peptide 25], for which the EC50 in experiment [1] and in experiment [2] was > 20000 pM throughout. Also, in experiment [1] (both receptors (GCGR and GLP1R) not activated), the “activation of the receptors (in words)” value is “did not activate”.

With `CC(C)C[C@H](NC(=O)[C@H](Cc1ccc(O)cc1)NC(=O)[C@H](CCCCN)NC(=O)[C@H](CO)NC(=O)[C@H](Cc1ccc(O)cc1)NC(=O)[C@H](CC(=O)O)NC(=O)[C@H](CO)NC(=O)[C@@H](NC(=O)[C@H](Cc1ccccc1)NC(=O)[C@@H](NC(=O)CNC(=O)[C@H](CCC(N)=O)NC(=O)[C@H](CO)NC(=O)[C@@H](N)Cc1c[nH]cn1)[C@@H](C)O)[C@@H](C)O)C(=O)N[C@@H](CC(=O)O)C(=O)N[C@@H](Cc1c[nH]c2ccccc12)C(=O)N[C@@H](CCCNC(=N)N)C(=O)N[C@@H](CCCNC(=N)N)C(=O)N[C@@H](C)C(=O)N[C@@H](CCC(N)=O)C(=O)N[C@@H](CC(=O)O)C(=O)N[C@@H](Cc1ccccc1)C(=O)N[C@H](C(=O)N[C@@H](CCC(N)=O)C(=O)N[C@@H](Cc1c[nH]c2ccccc12)C(=O)N[C@@H](CC(C)C)C(=O)N[C@@H](CC(C)C)C(=O)N[C@@H](CC(N)=O)C(=O)N[C@H](C(N)=O)[C@@H](C)O)C(C)C` [Peptide 6], the EC50 came to 32 ± 13 pM in experiment [1] and 63 ± 34 pM in experiment [2].

For the molecule `CSCC[C@H](NC(=O)[C@H](CC(C)C)NC(=O)[C@H](Cc1c[nH]c2ccccc12)NC(=O)[C@H](CCC(N)=O)NC(=O)[C@@H](NC(=O)[C@H](Cc1ccccc1)NC(=O)[C@H](CC(=O)O)NC(=O)[C@H](CCC(N)=O)NC(=O)[C@H](C)NC(=O)[C@H](CCCNC(=N)N)NC(=O)[C@H](CCCNC(=N)N)NC(=O)[C@H](CO)NC(=O)[C@H](CC(=O)O)NC(=O)[C@H](CC(C)C)NC(=O)[C@H](Cc1ccc(O)cc1)NC(=O)[C@H](CCCCN)NC(=O)[C@H](CO)NC(=O)[C@H](Cc1ccc(O)cc1)NC(=O)[C@H](CC(=O)O)NC(=O)[C@H](CO)NC(=O)[C@@H](NC(=O)[C@H](Cc1ccccc1)NC(=O)[C@@H](NC(=O)CNC(=O)[C@H](Cc1c[nH]cn1)NC(=O)[C@H](CO)NC(=O)[C@@H](N)Cc1c[nH]cn1)[C@@H](C)O)[C@@H](C)O)C(C)C)C(=O)N[C@H](C(=O)N[C@H](C(N)=O)[C@@H](C)O)[C@@H](C)O` [Peptide 29], the EC50 in experiment [1] was determined as 32 ± 3 pM; in experiment [2] it was 80 ± 6 pM.
